According to patent publication US11236087B2, “Highly active pyrazolo-piperidine substituted indole-2-carboxamides active against the hepatitis B virus (HBV)” (AiCuris GmbH & Co. KG, priority 2017, dated 2022):
Read-outs that look alike come from different tables or passages of the source.

What was measured:
HBV = assay: Determination of HBV DNA from the supernatants of HepAD38 cells (anti-HBV activity); format: cell-based, hepatitis B virus; conditions: Hepatitis B virus, read-out: Cell Activity (EC50)
Summary of the method: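 HepAD38 cells, tetracycline withdrawn to induce HBV, treated with serial half-log compound dilutions; on day 6 HBV DNA purified from filtered supernatant and quantified by real-time PCR against HBV plasmid standards; EC50 from relative copy numbers by non-linear regression, three experiments in triplicate.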

HBV core protein = molecular target: T1, HBV core protein (UniProt P03146); assay: Biochemical capsid assembly assay (fluorescence quenching); parameters: species or system hepatitis B virus; conditions: read-out: Assembly Activity (IC50); BODIPY-FL labelled core protein, 300 μM NaCl, read 6 min after start
T1 construct: fused on or other part: BODIPY-FL maleimide label on the C-terminal Cys150
Summary of the method: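 Purified E. coli-expressed HBV core protein (aa 1-149 plus Cys150), BODIPY-FL maleimide-labelled, at 1.0-2.0 μM in 50 mM HEPES pH 7.5 with 0.5% DMSO was used. Compounds were tested at 8 concentrations (0.5-log dilutions from 100, 31.6 or 10 μM). Assembly was started with NaCl ([…]), and fluorescence quenching was read after 6 min (ex 477/em 525 nm). EC50 was determined by non-linear regression.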

[1] = Cell viability assay (AlamarBlue) in HepAD38 cells; conditions: human
[2] = 144 h, HBV DNA in HepAD38 supernatant, day 6, qPCR

T1 sequence (P03146 whole entry, looked up, the tested form may be a part): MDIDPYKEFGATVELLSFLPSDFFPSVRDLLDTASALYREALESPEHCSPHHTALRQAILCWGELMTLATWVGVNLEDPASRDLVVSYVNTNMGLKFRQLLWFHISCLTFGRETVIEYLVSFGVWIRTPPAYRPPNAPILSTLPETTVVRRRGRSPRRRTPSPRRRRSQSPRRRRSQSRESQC

Row | Structure (SMILES) | EC50 (HBV; [2]) | IC50 (HBV core protein) | CC50 at 6 days [1] | EC50 (HBV; HePAD38, 144 h)
1 | O=C(c1cc2c(F)cc(F)cc2[nH]1)N1CCc2n[nH]c(-c3cscn3)c2C1 [Example 20, 4,6-difluoro-2-[3-(1,3-thiazol-4-yl)-2H,4H,5H,6H,7H-pyrazolo[4,3-c]pyridine-5-carbonyl]-1H-indole] | < 1 µM | < 5 µM | > 10 µM | –
2 | COCC1(N(C)C(=O)c2n[nH]c3c2CN(C(=O)c2cc4cc(F)c(F)cc4[nH]2)CC3)CC1 [Example 300, 5-(5,6-difluoro-1H-indole-2-carbonyl)-N-[1-(methoxymethyl)cyclopropyl]-N-methyl-1H,4H,5H,6H,7H-pyrazolo[4,3-c]pyridine-3-carboxamide] | < 1 µM | < 5 µM | > 10 µM | –
3 | CN(C(=O)c1[nH]nc2c1CN(C(=O)c1cc3c(F)cc(F)cc3[nH]1)CC2)C1CC1 [Example 323, N-cyclopropyl-5-(4,6-difluoro-1H-indole-2-carbonyl)-N-methyl-2H,4H,5H,6H,7H-pyrazolo[4,3-c]pyridine-3-carboxamide] | < 1 µM | < 5 µM | > 10 µM | –
4 | CS(=O)(=O)c1n[nH]c2c1CN(C(=O)c1cc3ccccc3[nH]1)CC2 [Example 211, 2-{3-methanesulfonyl-1H,4H,5H,6H,7H-pyrazolo[4,3-c]pyridine-5-carbonyl}-1H-indole] | < 1 µM | < 5 µM | > 10 µM | –
5 | COCC1(N(C)C(=O)c2n[nH]c3c2CN(C(=O)c2cc4ccc(Cl)cc4[nH]2)CC3)CC1 [Example 263, 5-(6-chloro-1H-indole-2-carbonyl)-N-[1-(methoxymethyl)cyclopropyl]-N-methyl-1H,4H,5H,6H,7H-pyrazolo[4,3-c]pyridine-3-carboxamide] | < 1 µM | < 5 µM | > 10 µM | –
6 | CN(CC1(O)CCC1)C(=O)c1n[nH]c2c1CN(C(=O)c1cc3ccccc3[nH]1)CC2 [Example 254, N-[(1-hydroxycyclobutyl)methyl]-5-(1H-indole-2-carbonyl)-N-methyl-1H,4H,5H,6H,7H-pyrazolo[4,3-c]pyridine-3-carboxamide] | < 1 µM | < 5 µM | > 10 µM | –
7 | COCC1(N(C)C(=O)c2n[nH]c3c2CN(C(=O)c2cc4cccc(F)c4[nH]2)CC3)CC1 [Example 308, 5-(7-fluoro-1H-indole-2-carbonyl)-N-[1-(methoxymethyl)cyclopropyl]-N-methyl-1H,4H,5H,6H,7H-pyrazolo[4,3-c]pyridine-3-carboxamide] | < 1 µM | < 5 µM | > 10 µM | –
8 | COCC1(N(C)C(=O)c2n[nH]c3c2CN(C(=O)c2cc4ccccc4[nH]2)CC3)CC1 [Example 155, 5-(1H-indole-2-carbonyl)-N-[1-(methoxymethyl)cyclopropyl]-N-methyl-1H,4H,5H,6H,7H-pyrazolo[4,3-c]pyridine-3-carboxamide] | < 1 µM | < 5 µM | > 10 µM | –
9 | CN(C(=O)c1n[nH]c2c1CN(C(=O)c1cc3ccccc3[nH]1)CC2)C1(COCC(F)F)CC1 [Example 360, N-{1-[(2,2-difluoroethoxy)methyl]cyclopropyl}-5-(1H-indole-2-carbonyl)-N-methyl-1H,4H,5H,6H,7H-pyrazolo[4,3-c]pyridine-3-carboxamide] | < 1 µM | < 5 µM | > 10 µM | –
10 | O=C(c1cc2ccccc2[nH]1)N1CCc2[nH]nc(C(=O)N3C[C@H]4CCO[C@H]4C3)c2C1 [Example 152, 2-{3-[(3aR,6aR)-hexahydro-2H-furo[2,3-c]pyrrole-5-carbonyl]-1H,4H,5H,6H,7H-pyrazolo[4,3-c]pyridine-5-carbonyl}-1H-indole] | 1 to 25 µM | < 100 µM | > 10 µM | –
11 | Nc1n[nH]c2c1CN(C(=O)c1cc3ccccc3[nH]1)CC2 [Example 115, 5-(1H-indole-2-carbonyl)-1H,4H,5H,6H,7H-pyrazolo[4,3-c]pyridin-3-amine] | 1 to 25 µM | 5 to 10 µM | > 100 µM | –
12 | CCN(C)C(=O)c1n[nH]c2c1CN(C(=O)c1cc3ccccc3[nH]1)CC2 [Example 103, N-ethyl-5-(1H-indole-2-carbonyl)-N-methyl-1H,4H,5H,6H,7H-pyrazolo[4,3-c]pyridine-3-carboxamide] | < 1 µM | < 5 µM | > 100 µM | –
13 | CN(CCO)C(=O)c1n[nH]c2c1CN(C(=O)c1cc3c(F)c(F)ccc3[nH]1)CC2 [Example 52, 5-(4,5-difluoro-1H-indole-2-carbonyl)-N-(2-hydroxyethyl)-N-methyl-1H,4H,5H,6H,7H-pyrazolo[4,3-c]pyridine-3-carboxamide] | < 1 µM | < 5 µM | > 100 µM | –
14 | COCC1(N(C)C(=O)c2n[nH]c3c2CN(C(=O)c2cc4c(Cl)ccc(F)c4[nH]2)CC3)CC1 [Example 306, 5-(4-chloro-7-fluoro-1H-indole-2-carbonyl)-N-[1-(methoxymethyl)cyclopropyl]-N-methyl-1H,4H,5H,6H,7H-pyrazolo[4,3-c]pyridine-3-carboxamide] | < 1 µM | < 5 µM | > 10 µM | –
15 | CON(C)C(=O)c1n[nH]c2c1CN(C(=O)c1cc3ccccc3[nH]1)CC2 [Example 138, 5-(1H-indole-2-carbonyl)-N-methoxy-N-methyl-1H,4H,5H,6H,7H-pyrazolo[4,3-c]pyridine-3-carboxamide] | < 1 µM | < 5 µM | > 100 µM | –
16 | O=C(c1cc2c(Cl)cc(F)cc2[nH]1)N1CCc2[nH]ncc2C1 [Example 142, 4-chloro-6-fluoro-2-{1H,4H,5H,6H,7H-pyrazolo[4,3-c]pyridine-5-carbonyl}-1H-indole] | < 1 µM | < 5 µM | > 100 µM | –
17 | O=C(c1cc2ccc(Br)cc2[nH]1)N1CCc2n[nH]c(-c3cscn3)c2C1 [Example 15, 6-bromo-2-[3-(1,3-thiazol-4-yl)-2H,4H,5H,6H,7H-pyrazolo[4,3-c]pyridine-5-carbonyl]-1H-indole] | < 1 µM | 5 to 10 µM | > 10 µM | –
18 | CN(CCO)C(=O)c1n[nH]c2c1CN(C(=O)c1cc3c(C(C)(F)F)cc(F)cc3[nH]1)CC2 [Example 27, 5-[4-(1,1-difluoroethyl)-6-fluoro-1H-indole-2-carbonyl]-N-(2-hydroxyethyl)-N-methyl-1H,4H,5H,6H,7H-pyrazolo[4,3-c]pyridine-3-carboxamide] | < 1 µM | < 5 µM | > 10 µM | –
19 | CCc1cc(F)cc2[nH]c(C(=O)N3CCc4[nH]nc(C56CC(C5)C6)c4C3)cc12 [Example 334, 2-(3-{bicyclo[1.1.1]pentan-1-yl}-1H,4H,5H,6H,7H-pyrazolo[4,3-c]pyridine-5-carbonyl)-4-ethyl-6-fluoro-1H-indole] | < 1 µM | < 5 µM | > 10 µM | –
20 | CC(O)c1cc(F)cc2[nH]c(C(=O)N3CCc4[nH]nc(C(=O)N(C)CCO)c4C3)cc12 (stereo not drawn) [Example 49, 5-[6-fluoro-4-(1-hydroxyethyl)-1H-indole-2-carbonyl]-N-(2-hydroxyethyl)-N-methyl-1H,4H,5H,6H,7H-pyrazolo[4,3-c]pyridine-3-carboxamide] | < 100 µM | < 100 µM | > 100 µM | –
21 | O=C(c1cc2ccccc2[nH]1)N1CCc2[nH]nc(C(=O)N3CCCN3)c2C1 [Example 124, 2-[3-(pyrazolidine-1-carbonyl)-1H,4H,5H,6H,7H-pyrazolo[4,3-c]pyridine-5-carbonyl]-1H-indole] | < 1 µM | < 5 µM | > 32 µM | –
22 | CN(CCO)C(=O)c1n[nH]c2c1CN(C(=O)c1cc3ccc(Cl)cc3[nH]1)CC2 [Example 57, 5-(6-chloro-1H-indole-2-carbonyl)-N-(2-hydroxyethyl)-N-methyl-1H,4H,5H,6H,7H-pyrazolo[4,3-c]pyridine-3-carboxamide] | < 1 µM | < 5 µM | > 100 µM | –
23 | CC(C)OC(=O)[C@H](C)NP(=O)(OCCON(C)C(=O)c1n[nH]c2c1CN(C(=O)c1cc3c(Cl)cccc3[nH]1)CC2)Oc1ccccc1 (stereo partly drawn) [Example 56, propan-2-yl (2S)-2-({[2-({1-[5-(4-chloro-1H-indole-2-carbonyl)-1H,4H,5H,6H,7H-pyrazolo[4,3-c]pyridin-3-yl]-N-methylformamido}oxy)ethoxy](phenoxy)phosphoryl}amino)propanoate] | – | < 5 µM | > 32 µM | < 1 µM
24 | COCC1(N(C)C(=O)c2n[nH]c3c2CN(C(=O)c2cc4c(C(C)(F)F)cc(F)cc4[nH]2)CC3)CC1 [Example 205, 5-[4-(1,1-difluoroethyl)-6-fluoro-1H-indole-2-carbonyl]-N-[1-(methoxymethyl)cyclopropyl]-N-methyl-1H,4H,5H,6H,7H-pyrazolo[4,3-c]pyridine-3-carboxamide] | < 1 µM | < 5 µM | > 10 µM | –
25 | CON(C)C(=O)c1n[nH]c2c1CN(C(=O)c1cc3c(C)cccc3[nH]1)CC2 [Example 131, N-methoxy-N-methyl-5-(4-methyl-1H-indole-2-carbonyl)-1H,4H,5H,6H,7H-pyrazolo[4,3-c]pyridine-3-carboxamide] | < 1 µM | < 5 µM | > 100 µM | –
